In the supplement of paper PMC10307832:

Columns and labels:
Experiment in all cases: relative viability (nuclei count vs DMSO), 5 days (fraction); higher = more cells survive
201T = tested on: 201T
How it was run: (§1)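 The day after seeding in 1536-well plates, lung cancer cell lines were treated by pin tool with a single drug, or with a fixed anchor-drug dose together with five library-drug doses (not always all listed) in √10 steps. After 5 days, a combined fix-and-stain solution (final 0.05% Triton X-100, 1% formaldehyde, 1 ug/ml Hoechst) was added. Nuclei counted on 4× images gave relative viability as treated counts over vehicle counts, reported as the median of duplicate plates.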

ChaGo-K-1 = tested on: ChaGo-K-1
How it was run: as §1

NCI-H2126 = tested on: NCI-H2126
How it was run: as §1

RERF-LC-KJ = tested on: RERF-LC-KJ
How it was run: as §1

EPLC-272H = tested on: EPLC-272H
How it was run: as §1

HCC-78 = tested on: HCC-78
How it was run: as §1

NCI-H1915 = tested on: NCI-H1915
How it was run: as §1

NCI-H520 = tested on: NCI-H520
How it was run: as §1

COR-L 105 = tested on: COR-L 105
How it was run: as §1

NCI-H1666 = tested on: NCI-H1666
How it was run: as §1

NCI-H23 = tested on: NCI-H23
How it was run: as §1

NCI-H661 = tested on: NCI-H661
How it was run: as §1

PC-14 = tested on: PC-14
How it was run: as §1

NCI-H2405 = tested on: NCI-H2405
How it was run: as §1

NCI-H650 = tested on: NCI-H650
How it was run: as §1

NCI-H647 = tested on: NCI-H647
How it was run: as §1

NCI-H2087 = tested on: NCI-H2087
How it was run: as §1

H3255 = tested on: H3255
How it was run: as §1

NCI-H322M = tested on: NCI-H322M
How it was run: as §1

HCC-827 = tested on: HCC-827
How it was run: as §1

NCI-H2347 = tested on: NCI-H2347
How it was run: as §1

NCI-H522 = tested on: NCI-H522
How it was run: as §1

LCLC-97TM1 = tested on: LCLC-97TM1
How it was run: as §1

LC-2-ad = tested on: LC-2-ad
How it was run: as §1

Clc1ccc(Nc2nnc(Cc3ccncc3)c3ccccc23)cc1 [Vatalanib] + Nc1nc2[nH]cc(CCc3ccc(C(=O)N[C@@H](CCC(=O)O)C(=O)O)cc3)c2c(=O)[nH]1 [Pemetrexed] (partner 0.2 µM)
relative viability (201T; first compound 0.04 µM): 0.305
relative viability (201T; first compound 0.1265 µM): 0.335
relative viability (201T; first compound 0.4 µM): 0.337
relative viability (201T; first compound 1.265 µM): 0.359
relative viability (201T; first compound 4 µM): 0.311
relative viability (ChaGo-K-1; first compound 0.04 µM): 0.263
relative viability (ChaGo-K-1; first compound 0.1265 µM): 0.294
relative viability (ChaGo-K-1; first compound 0.4 µM): 0.265
relative viability (ChaGo-K-1; first compound 1.265 µM): 0.258
relative viability (ChaGo-K-1; first compound 4 µM): 0.26
relative viability (NCI-H2126; first compound 0.04 µM): 0.68
relative viability (NCI-H2126; first compound 0.1265 µM): 0.668
relative viability (NCI-H2126; first compound 0.4 µM): 0.731
relative viability (NCI-H2126; first compound 1.265 µM): 0.592
relative viability (NCI-H2126; first compound 4 µM): 0.602
relative viability (RERF-LC-KJ; first compound 0.04 µM): 0.489
relative viability (RERF-LC-KJ; first compound 0.1265 µM): 0.476
relative viability (RERF-LC-KJ; first compound 0.4 µM): 0.484
relative viability (RERF-LC-KJ; first compound 1.265 µM): 0.502
relative viability (RERF-LC-KJ; first compound 4 µM): 0.458
relative viability (EPLC-272H; first compound 0.04 µM): 0.349
relative viability (EPLC-272H; first compound 0.1265 µM): 0.334
relative viability (EPLC-272H; first compound 0.4 µM): 0.781
relative viability (EPLC-272H; first compound 1.265 µM): 0.295
relative viability (EPLC-272H; first compound 4 µM): 0.376
relative viability (HCC-78; first compound 0.04 µM): 0.924
relative viability (HCC-78; first compound 0.1265 µM): 0.981
relative viability (HCC-78; first compound 0.4 µM): 0.881
relative viability (HCC-78; first compound 1.265 µM): 0.947
relative viability (HCC-78; first compound 4 µM): 0.906
relative viability (NCI-H1915; first compound 0.04 µM): 0.505
relative viability (NCI-H1915; first compound 0.1265 µM): 0.558
relative viability (NCI-H1915; first compound 0.4 µM): 0.53
relative viability (NCI-H1915; first compound 1.265 µM): 0.477
relative viability (NCI-H1915; first compound 4 µM): 0.498
relative viability (NCI-H520; first compound 0.04 µM): 0.676
relative viability (NCI-H520; first compound 0.1265 µM): 0.654
relative viability (NCI-H520; first compound 0.4 µM): 0.751
relative viability (NCI-H520; first compound 1.265 µM): 0.625
relative viability (NCI-H520; first compound 4 µM): 0.62
relative viability (COR-L 105; first compound 0.04 µM): 1.34
relative viability (COR-L 105; first compound 0.1265 µM): 1.1
relative viability (COR-L 105; first compound 0.4 µM): 1.2
relative viability (COR-L 105; first compound 1.265 µM): 1.15
relative viability (COR-L 105; first compound 4 µM): 1.04
relative viability (NCI-H1666; first compound 0.04 µM): 0.845
relative viability (NCI-H1666; first compound 0.1265 µM): 0.844
relative viability (NCI-H1666; first compound 0.4 µM): 0.843
relative viability (NCI-H1666; first compound 1.265 µM): 0.799
relative viability (NCI-H1666; first compound 4 µM): 0.901
relative viability (NCI-H23; first compound 0.04 µM): 0.579
relative viability (NCI-H23; first compound 0.1265 µM): 0.654
relative viability (NCI-H23; first compound 0.4 µM): 0.728
relative viability (NCI-H23; first compound 1.265 µM): 0.59
relative viability (NCI-H23; first compound 4 µM): 0.544
relative viability (NCI-H661; first compound 0.04 µM): 0.868
relative viability (NCI-H661; first compound 0.1265 µM): 0.906
relative viability (NCI-H661; first compound 0.4 µM): 0.996
relative viability (NCI-H661; first compound 1.265 µM): 0.905
relative viability (NCI-H661; first compound 4 µM): 0.936
relative viability (PC-14; first compound 0.04 µM): 0.135
relative viability (PC-14; first compound 0.1265 µM): 0.125
relative viability (PC-14; first compound 0.4 µM): 0.125
relative viability (PC-14; first compound 1.265 µM): 0.129
relative viability (PC-14; first compound 4 µM): 0.129
relative viability (NCI-H2405; first compound 0.04 µM): 1.04
relative viability (NCI-H2405; first compound 0.1265 µM): 1.04
relative viability (NCI-H2405; first compound 0.4 µM): 0.981
relative viability (NCI-H2405; first compound 4 µM): 1.01
relative viability (NCI-H650; first compound 0.04 µM): 0.931
relative viability (NCI-H650; first compound 0.1265 µM): 0.833
relative viability (NCI-H650; first compound 0.4 µM): 1.03
relative viability (NCI-H650; first compound 1.265 µM): 0.885
relative viability (NCI-H650; first compound 4 µM): 0.996
relative viability (NCI-H647; first compound 0.04 µM): 0.192
relative viability (NCI-H647; first compound 0.1265 µM): 0.163
relative viability (NCI-H647; first compound 0.4 µM): 0.163
relative viability (NCI-H647; first compound 1.265 µM): 0.187
relative viability (NCI-H647; first compound 4 µM): 0.19
relative viability (NCI-H2087; first compound 0.04 µM): 0.666
relative viability (NCI-H2087; first compound 0.1265 µM): 0.659
relative viability (NCI-H2087; first compound 0.4 µM): 0.685
relative viability (NCI-H2087; first compound 1.265 µM): 0.64
relative viability (NCI-H2087; first compound 4 µM): 0.682
relative viability (H3255; first compound 0.04 µM): 0.543
relative viability (H3255; first compound 0.1265 µM): 0.536
relative viability (H3255; first compound 0.4 µM): 0.529
relative viability (H3255; first compound 1.265 µM): 0.512
relative viability (H3255; first compound 4 µM): 0.523
relative viability (NCI-H322M; first compound 0.04 µM): 0.609
relative viability (NCI-H322M; first compound 0.1265 µM): 0.656
relative viability (NCI-H322M; first compound 0.4 µM): 0.678
relative viability (NCI-H322M; first compound 4 µM): 0.572
relative viability (HCC-827; first compound 0.04 µM): 0.241
relative viability (HCC-827; first compound 0.1265 µM): 0.232
relative viability (HCC-827; first compound 1.265 µM): 0.263
relative viability (HCC-827; first compound 4 µM): 0.231
relative viability (NCI-H2347; first compound 0.04 µM): 0.444
relative viability (NCI-H2347; first compound 0.1265 µM): 0.419
relative viability (NCI-H2347; first compound 0.4 µM): 0.43
relative viability (NCI-H2347; first compound 1.265 µM): 0.487
relative viability (NCI-H2347; first compound 4 µM): 0.41
relative viability (NCI-H522; first compound 0.04 µM): 0.923
relative viability (NCI-H522; first compound 0.1265 µM): 0.861
relative viability (NCI-H522; first compound 0.4 µM): 1.24
relative viability (NCI-H522; first compound 1.265 µM): 0.86
relative viability (NCI-H522; first compound 4 µM): 0.945
relative viability (LCLC-97TM1; first compound 0.04 µM): 0.2
relative viability (LCLC-97TM1; first compound 0.1265 µM): 0.177
relative viability (LCLC-97TM1; first compound 0.4 µM): 0.177
relative viability (LCLC-97TM1; first compound 1.265 µM): 0.149
relative viability (LCLC-97TM1; first compound 4 µM): 0.172
relative viability (LC-2-ad; first compound 0.04 µM): 0.267
relative viability (LC-2-ad; first compound 0.1265 µM): 0.27
relative viability (LC-2-ad; first compound 0.4 µM): 0.275
relative viability (LC-2-ad; first compound 1.265 µM): 0.267
relative viability (LC-2-ad; first compound 4 µM): 0.288
